Laboratory results from paper PMC10745061 (Marine Drugs, 2023).
Where a SMILES comes first, the peptide text is derived from it. Bridges are numbered along the chain shown (N, C = ends).

Assays:
[1] = tested on: E. coli K12 SBS 1936 biofilm; assay: Effect on established biofilm, MTT assay; format: cell-based, Escherichia coli; conditions: at 2 × MIC (4 μM), 24 h pre-formed biofilm, 16 h treatment in LB, 37 °C
Experimental: Bacterial biofilms play an important role in UTIs, being responsible for their persistence. Therefore, the eradication of mature biofilms is an extremely challenging task because high concentrations or doses of antibacterial agents are required. Here, the ability of HfBRI-25 to disrupt established biofilms was evaluated as a number of viable bacteria in biofilm using the MTT assay. According to our previous data, E. coli K12 SBS 1936 was chosen as a strong biofilm-producer that can form it in different media.
E. coli K12 SBS1936 was grown in LB broth overnight at 37 °C and diluted in the same media to obtain 1 × 10^6 CFU/mL. A total of 100 μL of bacterial suspension was added to each well of the 96-well polystyrene plate and grown at 32 °C and 120 rpm for 24 h. The wells were washed twice with sterile water to remove non-adherent cells. In parallel, 100 μL of peptide or ciprofloxacin solutions, serially diluted in LB medium using a separate 96-well polystyrene plate, were added to each well with pre-formed biofilm and incubated at 37 °C and 180 rpm for 16 h. Biofilm viability was assessed by using the MTT reagent (Sigma). […] Absorbance of each well was measured at 570 nm. Bacterial survival was calculated as a percentage relative to samples without antimicrobial agent. […]

[2] = tested on: human red blood cells (hRBCs); assay: Hemolysis, hemoglobin release assay; format: cell-based; conditions: hemoglobin release assay, 2 h incubation, two independent donors
Experimental: Figure 3 Biological activity of the peptides towards human cells. (A) Hemolytic effect on human red blood cells (hRBCs) after 2 h incubation (the hemoglobin release assay). (B) Cytotoxicity towards transformed human embryonic kidney cells (HEK293T) after 16 h incubation (the resazurin assay).
The hemolytic activity of the peptides was tested against the fresh suspension of human red blood cells (hRBC) using the hemoglobin release assay, as described previously. Two experiments were performed with hRBC from blood samples of independent donors. The quantitative data are represented as average means with standard deviations. The cytotoxic effect of the peptides was tested on transformed human embryonic kidney cells (HEK293T) using the resazurin assay. The technique is based on the ability of live cell dehydrogenases to reduce a blue resazurin to pink and fluorescent resorufin. A total of 10^4 cells per well in Dulbecco’s modified Eagle’s medium (DMEM/F12) supplemented with 10% FBS were placed into 96-well plates for 24 h in the CO2-incubator (5% CO2, 37 °C). […] Fluorescence of the formed resorufin was measured with the microplate reader AF2200 (Eppendorf, Germany) using the following channel: λExc = 535 nm, λEm = 595 nm. The fluorescence signal in the wells containing cells cultured without the peptides was assumed to represent 100% cell viability. […]

With CC[C@H](C)[C@@H]1NC(=O)[C@H](Cc2c[nH]c3ccccc23)NC(=O)[C@H](C(C)C)NC(=O)[C@@H]2CSSC[C@H](NC(=O)[C@H](CCCNC(=N)N)NC(=O)[C@H](CCCNC(=N)N)NC(=O)[C@H](C(C)C)NC(=O)[C@H](CCCNC(=N)N)NC(=O)[C@H](CCCNC(=N)N)NC(=O)CNC(=O)[C@H](CC(N)=O)NC(=O)[C@H](C(C)C)NC(=O)[C@H](CO)NC1=O)C(=O)N[C@@H](Cc1c[nH]c3ccccc13)C(=O)NCC(=O)N[C@@H](CO)C(=O)NCC(=O)N[C@H](C(=O)O)CSSC[C@H](NC(=O)CNC(=O)[C@H](CCCNC(=N)N)NC(=O)[C@@H]1CCCN1C(=O)[C@@H](N)CO)C(=O)N[C@@H](Cc1ccccc1)C(=O)N2 [HfBRI-25] (H-SPRGCFCVWISVNGRRVRRCWGSGC-OH; disulfide 5-25, 7-20; N-terminus and C-terminus assumed) the “Bacterial viability inside established biofilm” value [1] was “minimal residual bacterial viability” and the “Hemolytic effect on human red blood cells” value [2] was “absence of hemolytic and cytotoxic properties”.
